According to US20240285571A1, “METHODS OF TREATING BONE INFECTIONS” (MICROBION CORPORATION, priority 2020, published 2024):
Where two headings read alike, the source gives them in different places.

Columns and labels:
Format in all cases: cell-based
Escherichia coli = assay: Broth microdilution MIC (Example 6); conditions: Escherichia coli, read-out: MIC
Description: (§1) Test Compounds: The test agents BisEDT (MB-1-B3; Lot No. ED268-1-11-01), MB-2B, and MB-6 were stored at room temperature, in the dark, until assayed.
(§2) For testing daptomycin, calcium was supplemented with […] Ca^2+, resulting in a final concentration of […] Ca^2+ (2, 3).
(§3) MIC Assay Procedure: MIC values were determined using a broth microdilution procedure described by CLSI (2, 3).
(§4) The Biomek 2000 was then used to make 2-fold serial dilutions in the mother plates from column 1 through column 11. The wells of column 12 contained no drug and served as the organism growth control wells for the assay.
(§5) The test panels were prepared on the Biomek FX instrument which transferred 2 μL of drug solution from each well of a mother plate to the corresponding well of each daughter plate in a single step.
(§6) A standardized inoculum of each test organism was prepared per CLSI methods to equal a 0.5 McFarland standard, followed by a dilution of 1:20. The plates were then inoculated with 10 μL of the diluted inoculum using the Biomek 2000 from low to high drug concentration resulting in a final concentration of approximately 5×10^5 CFU/mL.
(§7) Plates were stacked 3-4 high, covered with a lid on the top plate, placed into plastic bags, and incubated at 35° C. for 16 to 20 hr (vancomycin was read for S. aureus after 24 hr incubation time). The MIC was recorded as the lowest concentration of drug that inhibited visible growth of the organism.

Klebsiella pneumoniae = assay: Broth microdilution MIC (Example 6); conditions: Klebsiella pneumoniae, read-out: MIC
Description: as §1, §2, §3, §4, §5, §6, §7

Pseudomonas aeruginosa = assay: Broth microdilution MIC (Example 6); conditions: Pseudomonas aeruginosa, read-out: MIC
Description: as §1, §2, §3, §4, §5, §6, §7

Acinetobacter baumannii = assay: Broth microdilution MIC (Example 6); conditions: Acinetobacter baumannii, read-out: MIC
In short: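 CLSI broth microdilution in cation-adjusted Mueller Hinton broth, test agents 0.06-64 μg/mL from DMSO stocks, inoculum approx. 5×10^5 CFU/mL. Incubation 35° C for 16–20 hr; MIC taken as lowest concentration inhibiting visible growth.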

[1] = test system: relevant ATCC QC organisms; assay: Broth microdilution MIC, QC (Example 6); conditions: read-out: MIC
In short: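 QC strains were tested per CLSI broth microdilution in cation-adjusted Mueller Hinton broth, with Ca2+ supplemented for daptomycin, at about 5×10^5 CFU/mL. Incubation was at 35° C for 16–20 hr, or 24 hr for vancomycin against S. aureus. The MIC was the lowest concentration inhibiting visible growth.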

[2] = ATCC35218, E. coli ATCC 35218, ESBL
[3] = ATCCBAA2471, E. coli ATCC BAA-2471, NDM
[4] = ATCCBAA1705, K. pneumoniae ATCC BAA-1705, ESBL/KPC
[5] = K. pneumoniae CDC 113, ESBL/KPC
[6] = K. pneumoniae CDC 115, ESBL/KPC
[7] = K. pneumoniae CDC 120, ESBL/KPC
[8] = K. pneumoniae CDC 126, ESBL/KPC
[9] = K. pneumoniae CDC 129, ESBL/KPC
[10] = K. pneumoniae CDC 135, ESBL/VIM
[11] = K. pneumoniae CDC 138, ESBL/NDM
[12] = K. pneumoniae CDC 158, ESBL/NDM/OXA
[13] = P. aeruginosa isolate CDC 230, β-lactamase type VIM/OXA
[14] = P. aeruginosa isolate CDC 231, β-lactamase type KPC/OXA
[15] = P. aeruginosa isolate CDC 241, β-lactamase type IMP/OXA
[16] = P. aeruginosa isolate CDC 246, β-lactamase type NDM/OXA
[17] = P. aeruginosa isolate CDC 250, β-lactamase type NDM/OXA
[18] = P. aeruginosa isolate CDC 356, β-lactamase type KPC
[19] = P. aeruginosa isolate CDC 439, β-lactamase type IMP
[20] = P. aeruginosa isolate CDC 444, β-lactamase type VIM
[21] = P. aeruginosa isolate CDC 457, β-lactamase type VIM
[22] = P. aeruginosa isolate CDC 516, β-lactamase type KPC/AmpC
[23] = A. baumannii isolate CDC 273, β-lactamase type ESBL/OXA
[24] = A. baumannii isolate CDC 274, β-lactamase type ESBL/OXA
[25] = A. baumannii isolate CDC 275, β-lactamase type ESBL/OXA
[26] = A. baumannii isolate CDC 277, β-lactamase type ESBL/OXA
[27] = A. baumannii isolate CDC 284, β-lactamase type ESBL/OXA
[28] = A. baumannii isolate CDC 307, β-lactamase type OXA
[29] = A. baumannii isolate CDC 308, β-lactamase type ESBL/OXA
[30] = A. baumannii isolate CDC 311, β-lactamase type OXA
[31] = A. baumannii isolate CDC 312, β-lactamase type OXA
[32] = A. baumannii isolate CDC 313, β-lactamase type ESBL/OXA
[33] = NCTC13304, A. baumannii isolate NCTC 13304, β-lactamase type OXA
[34] = Escherichia coli, ATCC25922, E. coli ATCC 25922
[35] = Escherichia coli, ATCC35218, E. coli ATCC 35218
[36] = Klebsiella pneumoniae, ATCCBAA1705, K. pneumoniae ATCC BAA-1705
[37] = Pseudomonas aeruginosa, ATCC27853, P. aeruginosa ATCC 27853

Measured: MIC

CC(C)(O/N=C(\C(=O)N[C@@H]1C(=O)N2C(C(=O)[O-])=C(C[n+]3ccccc3)CS[C@H]12)c1csc(N)n1)C(=O)O [Ceftazidime]
32 µg/mL: Escherichia coli; E. coli MMX 5745, KPC | Pseudomonas aeruginosa; [20] | Pseudomonas aeruginosa; P. aeruginosa isolate CDC 518, β-lactamase type KPC/AmpC
2 µg/mL: [1]; [37]
4 µg/mL: Klebsiella pneumoniae; [8] | Klebsiella pneumoniae; K. pneumoniae MMX 9029, ESBL
0.25 µg/mL: [1]; [34]
64 µg/mL: Escherichia coli; E. coli CDC 451, KPC | Pseudomonas aeruginosa; [13] | Pseudomonas aeruginosa; [18] | Pseudomonas aeruginosa; [22] | Acinetobacter baumannii; [23] | Acinetobacter baumannii; [27] | Acinetobacter baumannii; [28] | Acinetobacter baumannii; [29]
0.12 µg/mL: Escherichia coli; [2] | [1]; [35]
16 µg/mL: Escherichia coli; E. coli MMX 5758, ESBL
> 64 µg/mL: Escherichia coli; [3] | Escherichia coli; E. coli CDC 114, ESBL/KPC | Escherichia coli; E. coli CDC 118, ESBL/NDM | Escherichia coli; E. coli CDC 435, NDM | Escherichia coli; E. coli CDC 503, ESBL/NDM | Escherichia coli; E. coli MMX 5755, ESBL | Escherichia coli; E. coli MMX 5756, ESBL | Klebsiella pneumoniae; [4] | Klebsiella pneumoniae; K. pneumoniae CDC 112, KPC | Klebsiella pneumoniae; [5] | Klebsiella pneumoniae; [6] | Klebsiella pneumoniae; [7] | Klebsiella pneumoniae; [9] | Klebsiella pneumoniae; [10] | Klebsiella pneumoniae; [11] | Klebsiella pneumoniae; [12] | Pseudomonas aeruginosa; [14] | Pseudomonas aeruginosa; [15] | Pseudomonas aeruginosa; [16] | Pseudomonas aeruginosa; [17] | Pseudomonas aeruginosa; [19] | Pseudomonas aeruginosa; [21] | Acinetobacter baumannii; [24] | Acinetobacter baumannii; [25] | Acinetobacter baumannii; [26] | Acinetobacter baumannii; [30] | Acinetobacter baumannii; [31] | Acinetobacter baumannii; [32] | Acinetobacter baumannii; [33] | [1]; [36]

NCC[C@H](O)C(=O)N[C@@H]1C[C@H](N)[C@@H](O[C@H]2O[C@H](CN)[C@@H](O)[C@H](O)[C@H]2O)[C@H](O)[C@H]1O[C@H]1O[C@H](CO)[C@@H](O)[C@H](N)[C@H]1O [Amikacin]
0.5 µg/mL: Escherichia coli; E. coli MMX 5745, KPC | Klebsiella pneumoniae; [6] | Klebsiella pneumoniae; K. pneumoniae MMX 9029, ESBL | Acinetobacter baumannii; [33]
8 µg/mL: Pseudomonas aeruginosa; [14]
> 64 µg/mL: Escherichia coli; E. coli CDC 118, ESBL/NDM | Escherichia coli; E. coli CDC 435, NDM | Escherichia coli; E. coli CDC 503, ESBL/NDM | Klebsiella pneumoniae; [11] | Pseudomonas aeruginosa; [13] | Pseudomonas aeruginosa; [16] | Pseudomonas aeruginosa; [17] | Pseudomonas aeruginosa; [19] | Pseudomonas aeruginosa; [20] | Acinetobacter baumannii; [23] | Acinetobacter baumannii; [25] | Acinetobacter baumannii; [28] | Acinetobacter baumannii; [29] | Acinetobacter baumannii; [30]
32 µg/mL: Klebsiella pneumoniae; [9] | Pseudomonas aeruginosa; [15] | Acinetobacter baumannii; [27]
2 µg/mL: Klebsiella pneumoniae; [8] | Klebsiella pneumoniae; [12] | Pseudomonas aeruginosa; [18] | Pseudomonas aeruginosa; [21] | Pseudomonas aeruginosa; [22] | [1]; [37]
1 µg/mL: Escherichia coli; [2] | Escherichia coli; E. coli CDC 114, ESBL/KPC | Escherichia coli; E. coli MMX 5758, ESBL | Acinetobacter baumannii; [31] | [1]; [34] | [1]; [35]
16 µg/mL: Escherichia coli; E. coli MMX 5755, ESBL | Klebsiella pneumoniae; [4] | Klebsiella pneumoniae; K. pneumoniae CDC 112, KPC | Klebsiella pneumoniae; [5] | Klebsiella pneumoniae; [7] | Klebsiella pneumoniae; [10] | Acinetobacter baumannii; [24] | Acinetobacter baumannii; [26] | [1]; [36]
64 µg/mL: Escherichia coli; [3] | Escherichia coli; E. coli MMX 5756, ESBL
4 µg/mL: Escherichia coli; E. coli CDC 451, KPC | Acinetobacter baumannii; [32]
